According to US5462926A (Biomeasure, Inc., priority 1993, dated 1995):
Where two headings read alike, the source gives them in different places. Where a SMILES comes first, the peptide text is derived from it. Bridges are numbered along the chain shown (N, C = ends). [ ]: non-standard residue; d: D form. 2Nal = N[C@@H](Cc1ccc2ccccc2c1)C(=O)O; d2Nal = N[C@H](Cc1ccc2ccccc2c1)C(=O)O

How the values were obtained:
NMB receptor = target: T1, NMB receptor (Rattus norvegicus, UniProt P24053); experiment: [3H]inositol phosphates in NMB-R transfected cells (alone or NMB-stimulated); assay type: cell-based; set-up: a full length NMB-preferring bombesin receptor clone generated from rat esophagus; expressed in transfected cells; conditions: NMB-R transfected cells; for [3H]IP, analog Alone (10 μM): analog 10 μM alone, control 13 ± 3; for [3H]IP, analog Plus NMB (3 nM): analog 10 μM plus NMB 3 nM, NMB without analog 186 ± 58
T1 sequence (P24053 1-390): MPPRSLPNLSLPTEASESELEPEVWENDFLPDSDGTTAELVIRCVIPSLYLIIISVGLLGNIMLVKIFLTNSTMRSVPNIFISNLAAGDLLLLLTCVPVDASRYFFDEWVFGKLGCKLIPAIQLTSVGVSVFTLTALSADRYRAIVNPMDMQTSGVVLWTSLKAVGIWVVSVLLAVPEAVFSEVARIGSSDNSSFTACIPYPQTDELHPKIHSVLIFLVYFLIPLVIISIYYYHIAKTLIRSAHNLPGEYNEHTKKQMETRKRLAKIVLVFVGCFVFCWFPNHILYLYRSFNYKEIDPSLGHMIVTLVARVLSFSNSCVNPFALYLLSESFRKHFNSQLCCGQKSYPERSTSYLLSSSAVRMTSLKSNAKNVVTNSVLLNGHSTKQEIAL
Experimental: As described previously [Wada, E., et al. Neuron 6:421 (1991)], BALB 3T3 cells expressing a stably transfected rat NMB receptor (NMB-R transfected cells) were obtained using calcium phosphate precipitation of a full length NMB-preferring bombesin receptor clone generated from rat esophagus and subcloned into a modified version of the pCD2 plasmid. Cells were passaged every 3-4 days at confluence, using 0.1% trypsin in 1 mM EDTA. Rat glioblastoma C-6 tumor cells were maintained similarly and were passaged weekly at confluence. Both cell lines were cultured at 37° C. in a 5% CO2 atmosphere. Rat AR 42J pancreatic acinar cells were cultured in Dulbecco's modified Eagle's medium (DMEM) without antibiotics and supplemented with 10% (vol/vol) fetal calf serum. The incubation atmosphere consisted of 10% CO2 -90% humidified air at 37° C.
Measurement of phosphoinositides
Total phosphoinositides in C-6 cells and in NMB-R transfected cells were determined as described previously, with minor modifications [Benya, R. V. et al. Mol. Pharmacol. 42:1058 (1992); and Wang, L-H. et al. Biochem. Jo 286:641 (1992)]. Cells were grown to confluence in 24-well plates and then loaded with 100 μCi/ml myo-[2-^3 H]inositol in Dulbecco's modified essential medium with 2% fetal bovine serum at 37° C. for 48 hrs. Cells were washed and incubated in phosphoinositide buffer (standard buffer additionally containing 10 mM LiCl, 20 mM HEPES, 2 mM CaCl2, 2% BSA, and 1.2 mM MgSO4) for 15 min and then for 60 min at 37° C. with agonists at various concentrations or with 3 nM NMB (a half-maximal effective concentration) and possible antagonists at different concentrations. Reactions were halted using ice-cold 1% HCl in methanol, and the inositol phosphates (IP) were isolated as described previously [Bologna, M. et al. Cancer 63:1714 (1989); and Endo, T. et al. J. Endocrinolo 131:313 (1991)]. Briefly, after loading of the anion exchange column, free [^3 H]glycerophosphorylinositol was removed by washing with 5 mM disodium tetraborate in 60 mM sodium formate. Total [^3 H]inositol phosphates were then eluted using 100 mM formic acid in 1.0M ammonium formate as described previously [Benya, R. V. et al. Mol. Pharmacol. 42:1058 (1992); and Wang, L-H. et al. Biochem. J. 286:641 (1992 )].

rat NMB receptor = target: T2, rat NMB receptor (Rattus norvegicus, UniProt P24053); experiment: Binding of 125I-[D-Tyr0]NMB to NMB-R transfected BALB 3T3 cells; conditions: for fold decrease in NMB receptor affinity compared with cyclo SS-octa (#1): structure-function comparison from Table 1
T2 construct: a full length NMB-preferring bombesin receptor clone generated from rat esophagus; expressed in transfected cells
T2 sequence (P24053 1-390): T1 sequence (P24053 1-390)
Experimental: Cells were passaged every 3-4 days at confluence, using 0.1% trypsin in 1 mM EDTA. Rat glioblastoma C-6 tumor cells were maintained similarly and were passaged weekly at confluence. Both cell lines were cultured at 37° C. in a 5% CO2 atmosphere. Rat AR 42J pancreatic acinar cells were cultured in Dulbecco's modified Eagle's medium (DMEM) without antibiotics and supplemented with 10% (vol/vol) fetal calf serum. The incubation atmosphere consisted of 10% CO2 -90% humidified air at 37° C.

[1] = target: T3, NMB receptors on C-6 cells (Rattus norvegicus, UniProt P24053); experiment: Binding of 125I-[D-Tyr0]NMB to C-6 glioblastoma cells; conditions: for Ki: Ki by Cheng method, read-out: Ki 125I-NMB Binding, NMB Receptor, C-6 Cells
T3 construct: endogenous in cells; host or cells: rat glioblastoma C-6 cells
T3 sequence (P24053 1-390): T1 sequence (P24053 1-390)
Experimental: Binding of ^125 I-[D-Tyr^0 ]NMB to C-6 glioblastoma and NMB-R transfected cells
Binding studies using rat glioblastoma C-6 or NMB-R transfected cells were performed as described previously [Benya, R. V. et al. Mol. Pharmacol. 42:1058 (1992); and Wang, L-H. et al. Biochem. J. 286:641 (1992)] by suspending disaggregated cells in binding buffer, which was composed of standing buffer ([…], 7.7 mM KCl, 1.0 mM EGTA, 0.02% soybean trypsin inhibitor) additionally containing 50 mM HEPES, 1 mM MgCl2, 1.5 mM CaCl2, 2.2 mM KH2 PO4, 0,015% glutamine, and 0.2% BSA (w/v) (pH 7.4). Incubations contained 75 pM ^125 I-[D-Tyr^0 ]NMB and 15×10^6 C-6 cells/ml or 2×10^6 NMB-R transfected cells/ml, for 60 min at 22° C. Nonsaturable binding of ^125 I-[D-Tyr^0 ]NMB was the amount of radioactivity associated with C-6 cells or NMB-R transfected cells when the incubation mixture contained […] NMB. Nonsaturable binding was<15% of total binding in all experiments; all values are reported herein as saturable binding (i.e., total minus nonsaturable binding).

GRP receptor = GRP receptor (Rattus norvegicus, UniProt P52500); experiment: Amylase release from rat pancreatic acini (alone or Bn-stimulated); assay type: cell-based; set-up: from tissue; host or cells: dispersed pancreatic acini; conditions: for Amylase Release, analog Alone (10 μM): analog 10 μM alone, control 4 ± 1; for Amylase Release, analog Plus Bn (0.3 nM): analog 10 μM plus Bn 0.3 nM, Bn without analog 15 ± 1; for IC50: read-out: IC50 Amylase Release, GRP Receptor, Rat Pancreatic Acini
Experimental: pancreatic acini or [^3 H]myo[2H]inositolloaded NMBR transfected cell
were incubated either with no additives, the somatostatin octapeptide
analog, Bn, or NMB, or a combination for 30 min at 37° C.. Amylase
release from pancreatic acini was expressed at the indicated percent of
the total cellular amylase released during the incubation. [^3 H]IP i
expressed in dpm's. To test for inhibitory effects, the effect of
somatostatin analog (10 μM) was determined on 0.3 nM Bnstimulated

somatostatin receptors = target: T4, somatostatin receptors (Rattus norvegicus, UniProt P30680); experiment: Somatostatin membrane receptor assay, 125I-[Tyr11]SS-14, AR 42J cell membranes; assay type: binding; conditions: Cheng method; table prints no unit (b360 gives nM for a Table 4 value); read-out: affinity, 125I-[Tyr11]SS-14, AR 42J Cell Membranes (somatostatin receptors)
T4 construct: endogenous in cells; host or cells: rat AR 42J pancreatic acinar tumor cell membranes

[2] = 3 nM NMB, read-out: IC50 NMB-stimulated [3H]IP, NMB Receptor, Transfected Cells
[3] = NMB-R transfected BALB 3T3 cells, Ki by Cheng method, read-out: Ki 125I-NMB Binding, NMB Receptor, Transfected Cells

T4 sequence (P30680 whole entry): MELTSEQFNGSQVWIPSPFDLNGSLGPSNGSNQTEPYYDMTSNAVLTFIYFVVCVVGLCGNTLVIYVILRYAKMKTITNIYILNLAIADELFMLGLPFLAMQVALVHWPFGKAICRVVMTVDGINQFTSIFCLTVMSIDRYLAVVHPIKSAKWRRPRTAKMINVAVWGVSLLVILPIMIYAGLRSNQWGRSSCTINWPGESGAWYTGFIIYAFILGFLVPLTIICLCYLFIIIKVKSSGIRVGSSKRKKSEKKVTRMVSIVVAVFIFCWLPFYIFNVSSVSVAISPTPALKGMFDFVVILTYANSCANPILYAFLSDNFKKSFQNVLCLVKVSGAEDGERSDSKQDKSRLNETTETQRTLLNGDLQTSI
Chain of GRP receptor (P52500 whole entry): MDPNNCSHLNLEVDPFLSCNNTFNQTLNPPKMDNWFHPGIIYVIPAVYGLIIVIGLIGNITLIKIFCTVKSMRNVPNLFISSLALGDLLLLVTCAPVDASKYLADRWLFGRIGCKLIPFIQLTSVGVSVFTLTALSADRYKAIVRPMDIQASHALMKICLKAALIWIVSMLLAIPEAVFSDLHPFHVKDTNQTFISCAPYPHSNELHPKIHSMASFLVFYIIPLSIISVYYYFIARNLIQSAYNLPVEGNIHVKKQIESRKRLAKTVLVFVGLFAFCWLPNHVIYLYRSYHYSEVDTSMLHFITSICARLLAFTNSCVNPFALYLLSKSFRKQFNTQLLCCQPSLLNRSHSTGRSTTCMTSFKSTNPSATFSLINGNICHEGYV

SMILES | IC50 (NMB receptor; [2]) | [3H]IP, analog Alone (10 μM) (NMB receptor) | [3H]IP, analog Plus NMB (3 nM) (NMB receptor) | Ki (rat NMB receptor; [3]) | Ki [1] | Amylase Release, analog Alone (10 μM) (GRP receptor) | Amylase Release, analog Plus Bn (0.3 nM) (GRP receptor) | IC50 (GRP receptor) | Ki (somatostatin receptors) | fold decrease in NMB receptor affinity compared with cyclo SS-octa (#1) (rat NMB receptor) | other results
CC(C)[C@@H]1NC(=O)[C@H](CCCCN)NC(=O)[C@@H](Cc2c[nH]c3ccccc23)NC(=O)[C@H](Cc2ccc(O)cc2)NC(=O)[C@@H](NC(=O)[C@H](N)Cc2ccc3ccccc3c2)CSSC[C@@H](C(=O)N[C@@H](Cc2ccc3ccccc3c2)C(N)=O)NC1=O [Analog #1, H2 -D-Nal-Cys-Tyr-D-Trp-Lys-Val-Cys-Nal-NH2] (H-[d2Nal]CY[dW]KVC[2Nal]-NH2; disulfide 2-7) | 0.895 ± 0.098 µM | 12 ± 2 dym × 10^3 | 8 ± 4 dym × 10^3 | 216 ± 36 nM | 59 ± 9 nM | 5 ± 1 % total | 15 ± 2 % total | > 10000 nM | 0.8 ± 0.5 nM | – | concentration causing detectible inhibition of NMB-stimulated [3H]IP (NMB receptor): 0.3 µM; effect at 10 μM on NMB-stimulated increase in [3H]IP (NMB receptor; 10 μM, 3 nM NMB): completely inhibited; slope of Schild regression (NMB receptor; not significantly different from unity): 1.1(+0.2); Kd (rat NMB receptor; NMB-R transfected 3T3 cells, read-out: Kd, inhibition of 125I-[D-Tyr0]NMB binding, NMB-R transfected 3T3 cells): 216 nM; concentration causing complete inhibition of 125I-NMB binding (rat NMB receptor; NMB-R transfected cells): 3 µM; concentration causing detectible inhibition of 125I-NMB binding (rat NMB receptor; NMB-R transfected cells): 0.1 µM; type of antagonism (rat NMB receptor; NMB-R transfected cells, 0.5 μM): competitive antagonist; IC50 (rat NMB receptor; NMB-R transfected cells, read-out: half-maximal inhibition of 125I-NMB binding): 216 nM; Kd ([1]; read-out: Kd, inhibition of 125I-[D-Tyr0]NMB binding, glioblastoma C-6 cells): 59 nM; effect on Bn-stimulated amylase release (GRP receptor; 0.3 nM Bn): did not inhibit
C[C@@H](O)[C@H](NC(=O)[C@@H]1CSSC[C@H](NC(=O)[C@H](N)Cc2ccc3ccccc3c2)C(=O)N[C@@H](Cc2ccc(O)cc2)C(=O)N[C@H](Cc2c[nH]c3ccccc23)C(=O)N[C@@H](CCCCN)C(=O)N[C@@H](Cc2ccc3ccccc3c2)C(=O)N1)C(N)=O [Analog #2, H2 -D-Nal-Cys-Tyr-D-Trp-Lys-Nal-Cys-Thr-NH2] | 6.67 ± 0.435 µM | 11 ± 2 dym × 10^3 | 39 ± 7 dym × 10^3 | 772 ± 94 nM | 226 ± 36 nM | 5 ± 1 % total | 13 ± 1 % total | > 10000 nM | 0.5 ± 0.1 nM | 4 fold | –
CC(C)[C@@H]1NC(=O)[C@H](CCCCN)NC(=O)[C@@H](Cc2c[nH]c3ccccc23)NC(=O)[C@H](Cc2ccc(O)cc2)NC(=O)[C@@H](NC(=O)[C@H](N)Cc2ccccc2)CSSC[C@@H](C(=O)N[C@@H](Cc2ccc3ccccc3c2)C(N)=O)NC1=O [Analog #4, H2 -D-Phe-Cys-Tyr-D-Trp-Lys-Val-Cys-Nal-NH2] (H-[dF]CY[dW]KVC[2Nal]-NH2; disulfide 2-7) | 3.76 ± 0.568 µM | 13 ± 1 dym × 10^3 | 33 ± 4 dym × 10^3 | 818 ± 68 nM | 848 ± 191 nM | 4 ± 2 % total | 14 ± 1 % total | > 10000 nM | 0.24 ± 0.13 nM | 4 to 7 fold | –
C[C@@H](O)[C@@H]1NC(=O)[C@H](CCCCN)NC(=O)[C@@H](Cc2c[nH]c3ccccc23)NC(=O)[C@H](Cc2ccc(O)cc2)NC(=O)[C@@H](NC(=O)[C@H](N)Cc2ccccc2)CSSC[C@@H](C(=O)N[C@@H](Cc2ccc3ccccc3c2)C(N)=O)NC1=O [Analog #7, H2 -D-phe-Cys-Tyr-D-Trp-Lys-Thr-Cys-Nal-NH2] (H-[dF]CY[dW]KTC[2Nal]-NH2; disulfide 2-7) | 36.2 ± 4.97 µM | 15 ± 1 dym × 10^3 | 99 ± 24 dym × 10^3 | 4360 ± 328 nM | 1450 ± 78 nM | 3 ± 1 % total | 16 ± 1 % total | > 10000 nM | 0.86 ± 0.23 nM | – | IC50 (NMB receptor; 3 nM NMB, read-out: IC50 NMB-stimulated [3H]IP, Transfected Cells (values in μM)): > 10 µM; fold by which cyclo SS-octa is more potent than the analog, 125I-NMB binding (rat NMB receptor; NMB-R transfected cells): 18 fold; Ki (rat NMB receptor; NMB-R transfected cells, value or range given for a group, read-out: K1, 125I-NMB binding to NMB-R transfected cells (text)): 3900 to 4400 nM
